Assay results reported in ChEMBL document CHEMBL4376833, “Influence of Non-natural Cationic Amino Acids on the Biological Activity Profile of Innate Defense Regulator Peptides” (J Med Chem, 2019).
Calls of active or inactive are those of the source. The rule behind the calls is not given here. Non-standard residues stand in square brackets, D forms with d. Residues, ends and D or L forms follow the SMILES beside them. hArg = N=C(N)NCCCC[C@H](N)C(=O)O; Agb = N=C(N)NCC[C@H](N)C(=O)O; Agp = N=C(N)NC[C@H](N)C(=O)O; Orn = NCCC[C@H](N)C(=O)O; Dab = NCC[C@H](N)C(=O)O; Dap = NC[C@H](N)C(=O)O

How the values were obtained:
Staphylococcus aureus [1] = assay: Antibiofilm activity against methicillin-resistant Staphylococcus aureus assessed as inhibition of biofilm formation incubated for overnight by crystal violet staining based microtiter plate assay; format: functional, organism-based
Staphylococcus aureus [2] = assay: Antibiofilm activity against methicillin-resistant Staphylococcus aureus assessed as inhibition of biofilm formation by measuring residual biofilm growth incubated for overnight at 10-fold dilution by crystal violet staining based microtiter plate assay relative to control; format: functional
Staphylococcus aureus [3] = assay: Antibacterial activity against methicillin-resistant Staphylococcus aureus assessed as alteration in bacterial growth incubated for overnight by microtiter plate based spectrophotometric analysis; format: functional, organism-based

| Compound | inhibition (Staphylococcus aureus [1]) | residual biofilm growth (% of control) (Staphylococcus aureus [2]) [%] | Activity (Staphylococcus aureus [3]) |
| --- | --- | --- | --- |
| CC[C@H](C)[C@H](NC(=O)[C@H](CC(C)C)NC(=O)[C@H](CCCNC(=N)N)NC(=O)[C@@H](N)C(C)C)C(=O)N[C@H](C(=O)N[C@@H](C)C(=O)N[C@H](C(=O)N[C@@H](CCCNC(=N)N)C(=O)N[C@@H](CNC(=N)N)C(=O)N[C@@H](Cc1c[nH]c2ccccc12)C(=O)N[C@@H](CCCNC(=N)N)C(=O)N[C@@H](CCCNC(=N)N)C(N)=O)C(C)C)C(C)C (H-VRLIVAVR[Agp]WRR-NH2) | Dose-dependent effect | 104.1 | Active |
| CC[C@H](C)[C@H](NC(=O)[C@H](CC(C)C)NC(=O)[C@H](CCCNC(=N)N)NC(=O)[C@@H](N)C(C)C)C(=O)N[C@H](C(=O)N[C@@H](C)C(=O)N[C@H](C(=O)N[C@@H](CCCNC(=N)N)C(=O)N[C@@H](CCN)C(=O)N[C@@H](Cc1c[nH]c2ccccc12)C(=O)N[C@@H](CCCNC(=N)N)C(=O)N[C@@H](CCCNC(=N)N)C(N)=O)C(C)C)C(C)C (H-VRLIVAVR[Dab]WRR-NH2) | Dose-dependent effect | 102 | Active |
| CC[C@H](C)[C@H](NC(=O)[C@H](CC(C)C)NC(=O)[C@H](CCCNC(=N)N)NC(=O)[C@@H](N)C(C)C)C(=O)N[C@H](C(=O)N[C@@H](C)C(=O)N[C@H](C(=O)N[C@@H](CCCNC(=N)N)C(=O)N[C@@H](CN)C(=O)N[C@@H](Cc1c[nH]c2ccccc12)C(=O)N[C@@H](CCCNC(=N)N)C(=O)N[C@@H](CCCNC(=N)N)C(N)=O)C(C)C)C(C)C (H-VRLIVAVR[Dap]WRR-NH2) | Dose-dependent effect | 51.8 | Active |
| CC[C@H](C)[C@H](NC(=O)[C@H](CC(C)C)NC(=O)[C@H](CCCNC(=N)N)NC(=O)[C@@H](N)C(C)C)C(=O)N[C@H](C(=O)N[C@@H](C)C(=O)N[C@H](C(=O)N[C@@H](CCCNC(=N)N)C(=O)N[C@@H](CCCN)C(=O)N[C@@H](Cc1c[nH]c2ccccc12)C(=O)N[C@@H](CCCNC(=N)N)C(=O)N[C@@H](CCCNC(=N)N)C(N)=O)C(C)C)C(C)C (H-VRLIVAVR[Orn]WRR-NH2) | Dose-dependent effect | 79.3 | Active |
| CC[C@H](C)[C@H](NC(=O)[C@H](CC(C)C)NC(=O)[C@H](CCCNC(=N)N)NC(=O)[C@@H](N)C(C)C)C(=O)N[C@H](C(=O)N[C@@H](C)C(=O)N[C@H](C(=O)N[C@@H](CCCNC(=N)N)C(=O)N[C@@H](CCCCNC(=N)N)C(=O)N[C@@H](Cc1c[nH]c2ccccc12)C(=O)N[C@@H](CCCNC(=N)N)C(=O)N[C@@H](CCCNC(=N)N)C(N)=O)C(C)C)C(C)C (H-VRLIVAVR[hArg]WRR-NH2) | Dose-dependent effect | 84.7 | Active |
| CC[C@H](C)[C@H](NC(=O)[C@H](CCNC(=N)N)NC(=O)[C@@H](NC(=O)[C@H](C)NC(=O)[C@@H](NC(=O)[C@@H](NC(=O)[C@H](CC(C)C)NC(=O)[C@H](CCCNC(=N)N)NC(=O)[C@@H](N)C(C)C)[C@@H](C)CC)C(C)C)C(C)C)C(=O)N[C@@H](Cc1c[nH]c2ccccc12)C(=O)N[C@@H](CCCNC(=N)N)C(=O)N[C@@H](CCCNC(=N)N)C(N)=O (H-VRLIVAV[Agb]IWRR-NH2) | Dose-dependent effect | 103.5 | Active |
| CC[C@H](C)[C@H](NC(=O)[C@H](CNC(=N)N)NC(=O)[C@@H](NC(=O)[C@H](C)NC(=O)[C@@H](NC(=O)[C@@H](NC(=O)[C@H](CC(C)C)NC(=O)[C@H](CCCNC(=N)N)NC(=O)[C@@H](N)C(C)C)[C@@H](C)CC)C(C)C)C(C)C)C(=O)N[C@@H](Cc1c[nH]c2ccccc12)C(=O)N[C@@H](CCCNC(=N)N)C(=O)N[C@@H](CCCNC(=N)N)C(N)=O (H-VRLIVAV[Agp]IWRR-NH2) | Dose-dependent effect | 102.2 | Active |
| CC[C@H](C)[C@H](NC(=O)[C@H](CCN)NC(=O)[C@@H](NC(=O)[C@H](C)NC(=O)[C@@H](NC(=O)[C@@H](NC(=O)[C@H](CC(C)C)NC(=O)[C@H](CCCNC(=N)N)NC(=O)[C@@H](N)C(C)C)[C@@H](C)CC)C(C)C)C(C)C)C(=O)N[C@@H](Cc1c[nH]c2ccccc12)C(=O)N[C@@H](CCCNC(=N)N)C(=O)N[C@@H](CCCNC(=N)N)C(N)=O (H-VRLIVAV[Dab]IWRR-NH2) | Dose-dependent effect | 103.9 | Active |
| CC[C@H](C)[C@H](NC(=O)[C@H](CN)NC(=O)[C@@H](NC(=O)[C@H](C)NC(=O)[C@@H](NC(=O)[C@@H](NC(=O)[C@H](CC(C)C)NC(=O)[C@H](CCCNC(=N)N)NC(=O)[C@@H](N)C(C)C)[C@@H](C)CC)C(C)C)C(C)C)C(=O)N[C@@H](Cc1c[nH]c2ccccc12)C(=O)N[C@@H](CCCNC(=N)N)C(=O)N[C@@H](CCCNC(=N)N)C(N)=O (H-VRLIVAV[Dap]IWRR-NH2) | Dose-dependent effect | 26.8 | Active |
| CC[C@H](C)[C@H](NC(=O)[C@H](CCCN)NC(=O)[C@@H](NC(=O)[C@H](C)NC(=O)[C@@H](NC(=O)[C@@H](NC(=O)[C@H](CC(C)C)NC(=O)[C@H](CCCNC(=N)N)NC(=O)[C@@H](N)C(C)C)[C@@H](C)CC)C(C)C)C(C)C)C(=O)N[C@@H](Cc1c[nH]c2ccccc12)C(=O)N[C@@H](CCCNC(=N)N)C(=O)N[C@@H](CCCNC(=N)N)C(N)=O (H-VRLIVAV[Orn]IWRR-NH2) | Dose-dependent effect | 14 | Active |
| CC[C@H](C)[C@H](NC(=O)[C@H](CCCCNC(=N)N)NC(=O)[C@@H](NC(=O)[C@H](C)NC(=O)[C@@H](NC(=O)[C@@H](NC(=O)[C@H](CC(C)C)NC(=O)[C@H](CCCNC(=N)N)NC(=O)[C@@H](N)C(C)C)[C@@H](C)CC)C(C)C)C(C)C)C(=O)N[C@@H](Cc1c[nH]c2ccccc12)C(=O)N[C@@H](CCCNC(=N)N)C(=O)N[C@@H](CCCNC(=N)N)C(N)=O (H-VRLIVAV[hArg]IWRR-NH2) | Dose-dependent effect | 26.3 | Active |
| CC[C@H](C)[C@H](NC(=O)[C@H](CCCNC(=N)N)NC(=O)[C@H](CCNC(=N)N)NC(=O)[C@H](C)NC(=O)[C@@H](NC(=O)[C@@H](NC(=O)[C@H](CC(C)C)NC(=O)[C@H](CCCNC(=N)N)NC(=O)[C@@H](N)C(C)C)[C@@H](C)CC)C(C)C)C(=O)N[C@@H](Cc1c[nH]c2ccccc12)C(=O)N[C@@H](CCCNC(=N)N)C(=O)N[C@@H](CCCNC(=N)N)C(N)=O (H-VRLIVA[Agb]RIWRR-NH2) | Dose-dependent effect | 104.1 | Active |
| CC[C@H](C)[C@H](NC(=O)[C@H](CCCNC(=N)N)NC(=O)[C@H](CNC(=N)N)NC(=O)[C@H](C)NC(=O)[C@@H](NC(=O)[C@@H](NC(=O)[C@H](CC(C)C)NC(=O)[C@H](CCCNC(=N)N)NC(=O)[C@@H](N)C(C)C)[C@@H](C)CC)C(C)C)C(=O)N[C@@H](Cc1c[nH]c2ccccc12)C(=O)N[C@@H](CCCNC(=N)N)C(=O)N[C@@H](CCCNC(=N)N)C(N)=O (H-VRLIVA[Agp]RIWRR-NH2) | Dose-dependent effect | 106.7 | Active |
| CC[C@H](C)[C@H](NC(=O)[C@H](CCCNC(=N)N)NC(=O)[C@H](CCN)NC(=O)[C@H](C)NC(=O)[C@@H](NC(=O)[C@@H](NC(=O)[C@H](CC(C)C)NC(=O)[C@H](CCCNC(=N)N)NC(=O)[C@@H](N)C(C)C)[C@@H](C)CC)C(C)C)C(=O)N[C@@H](Cc1c[nH]c2ccccc12)C(=O)N[C@@H](CCCNC(=N)N)C(=O)N[C@@H](CCCNC(=N)N)C(N)=O (H-VRLIVA[Dab]RIWRR-NH2) | Dose-dependent effect | 102.5 | Active |
| CC[C@H](C)[C@H](NC(=O)[C@H](CCCNC(=N)N)NC(=O)[C@H](CN)NC(=O)[C@H](C)NC(=O)[C@@H](NC(=O)[C@@H](NC(=O)[C@H](CC(C)C)NC(=O)[C@H](CCCNC(=N)N)NC(=O)[C@@H](N)C(C)C)[C@@H](C)CC)C(C)C)C(=O)N[C@@H](Cc1c[nH]c2ccccc12)C(=O)N[C@@H](CCCNC(=N)N)C(=O)N[C@@H](CCCNC(=N)N)C(N)=O (H-VRLIVA[Dap]RIWRR-NH2) | Dose-dependent effect | 102 | Active |
| CC[C@H](C)[C@H](NC(=O)[C@H](CCCNC(=N)N)NC(=O)[C@H](CCCN)NC(=O)[C@H](C)NC(=O)[C@@H](NC(=O)[C@@H](NC(=O)[C@H](CC(C)C)NC(=O)[C@H](CCCNC(=N)N)NC(=O)[C@@H](N)C(C)C)[C@@H](C)CC)C(C)C)C(=O)N[C@@H](Cc1c[nH]c2ccccc12)C(=O)N[C@@H](CCCNC(=N)N)C(=O)N[C@@H](CCCNC(=N)N)C(N)=O (H-VRLIVA[Orn]RIWRR-NH2) | Dose-dependent effect | 103 | Active |
| CC[C@H](C)[C@H](NC(=O)[C@H](CCCNC(=N)N)NC(=O)[C@H](CCCCNC(=N)N)NC(=O)[C@H](C)NC(=O)[C@@H](NC(=O)[C@@H](NC(=O)[C@H](CC(C)C)NC(=O)[C@H](CCCNC(=N)N)NC(=O)[C@@H](N)C(C)C)[C@@H](C)CC)C(C)C)C(=O)N[C@@H](Cc1c[nH]c2ccccc12)C(=O)N[C@@H](CCCNC(=N)N)C(=O)N[C@@H](CCCNC(=N)N)C(N)=O (H-VRLIVA[hArg]RIWRR-NH2) | Dose-dependent effect | 107 | Active |
| CC[C@H](C)[C@H](NC(=O)[C@H](CCCNC(=N)N)NC(=O)[C@@H](NC(=O)[C@H](CCNC(=N)N)NC(=O)[C@@H](NC(=O)[C@@H](NC(=O)[C@H](CC(C)C)NC(=O)[C@H](CCCNC(=N)N)NC(=O)[C@@H](N)C(C)C)[C@@H](C)CC)C(C)C)C(C)C)C(=O)N[C@@H](Cc1c[nH]c2ccccc12)C(=O)N[C@@H](CCCNC(=N)N)C(=O)N[C@@H](CCCNC(=N)N)C(N)=O (H-VRLIV[Agb]VRIWRR-NH2) | Dose-dependent effect | 105.9 | Active |
